Values joined by “and” are separate entries in the source; they are usually repeats but may differ in a detail not shown here. Equal entries are not always repeated.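 96-well plates; 48 h exposure; 5 concentrations. Endpoints by linear interpolation between flanking doses. Not reached: highest tested concentration assigned. GI50: concentration for 50% inhibition of growth. TGI denotes the concentration required for complete inhibition of growth.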
Key:
Assay in all cases: NCI anticancer screen, dose series, 48 h
[1] = test system: ACHN renal
[2] = test system: NCI-H522 lung
[3] = test system: HOP-92 NSCLC
[4] = test system: HOP-62 NSCLC
[5] = test system: EKVX NSCLC
[6] = test system: OVCAR-4 ovarian
[7] = test system: SK-MEL-2 melanoma
[8] = test system: HT29 colon

| SMILES | TGI [1] [µM] | TGI [2] | TGI [3] [µM] | TGI [4] | TGI [5] | TGI [6] | TGI [7] | TGI [8] | GI50 [1] [µM] | GI50 [2] [µM] | GI50 [3] [µM] | GI50 [4] [µM] | GI50 [6] [µM] | GI50 [7] [µM] | GI50 [8] [µM] | GI50 [5] [µM] |
| --- | --- | --- | --- | --- | --- | --- | --- | --- | --- | --- | --- | --- | --- | --- | --- | --- |
| CC(C)(C)NCc1cc(C(C)(C)C)cc(-c2ccc(Cl)cc2)c1O | 26.7 | 24.8 µM | 28.3 | 20.1 µM | 32.4 µM | 41.3 µM | 37.9 µM | 53.2 µM |  |  |  |  |  |  |  |  |
| Cn1c(=O)c(Oc2ccccc2F)cc2cnc(NC3CCOCC3)nc21 | > 25 | > 25 µM | 22.8 | > 25 µM |  | > 25 µM | > 25 µM | > 25 µM | > 25 | > 25 | 1.25 | > 25 | > 25 | > 25 | > 25 |  |
| CC[C@@]1(O)C(=O)NCc2c1cc1n(c2=O)Cc2cc3c(N)cccc3nc2-1 | > 46.6 | 9.71 µM | > 84.1 |  | > 51.7 µM | > 41.5 µM | > 17.7 µM | > 100 µM | 1.23 | 0.176 | 8.64 | 0.973 | 11.4 | 9.29 | 15.1 | 16.5 |
| Clc1ccc2[nH]cc(-c3nc(-c4c[nH]c5ncccc45)cs3)c2c1 | > 100 | 13.7 µM | 8.6 | 27.3 µM | 22.3 µM | 36.5 µM | 23.7 µM |  | 2.82 | 2.73 | 2.24 | 5.2 | 2.85 | 6.51 |  | 2.16 |
| COc1cc(/C=C\[N+](=O)[O-])ccc1OCc1ccccc1 | 4.36 | 6.62 µM | 31.4 | 6.58 µM | 17.6 µM | 13.1 µM | 14.6 µM | 4 µM | 1.99 | 2.04 | 12.5 | 2.35 | 3.07 | 3.67 | 1.94 | 3.71 |
| CCCCNN | > 100 | > 100 µM |  | > 100 µM | > 100 µM | > 100 µM | > 100 µM | > 100 µM |  |  |  |  |  |  |  |  |
| OCCSCc1ccccc1 | > 100 | > 100 µM | > 100 | > 100 µM | > 100 µM | > 100 µM | > 100 µM | > 100 µM |  |  |  |  |  |  |  |  |
| CN(C)N1C(=O)c2ccccc2NC1c1ccccc1 (stereo not drawn) | > 100 | > 100 µM | > 100 | > 100 µM | > 100 µM | > 100 µM | > 100 µM | > 100 µM |  |  |  |  |  |  |  |  |
| O=C(Nc1ccc(F)cc1)c1c(NC(=O)C(F)(F)F)sc2c1CCCCC2 | 7.93 | 7.41 µM | 1.38 | 6.48 µM |  | 8.34 µM | 6.75 µM | 13.5 µM | 2.11 | 1.33 | 0.269 | 2.26 | 1.65 | 1.47 | 2.48 |  |
| Cc1sc(C)c(Cc2c(C)sc(C)c2CCl)c1CCl | > 100 | > 100 µM |  | > 100 µM | > 100 µM | > 100 µM | > 100 µM | > 100 µM | > 100 | > 100 |  | > 100 | > 100 | > 100 | > 100 | > 100 |
| Nc1ccc(S(=O)(=O)C23CC4CC(CC(C4)C2)C3)cc1 | > 100 | > 100 µM |  | > 100 µM | > 100 µM |  | > 100 µM | > 100 µM |  |  |  |  |  |  |  |  |
| CC(C)c1ccc(/C(C(=O)O)=C(\O)C(=O)O)cc1 | > 100 | > 100 µM | > 100 | > 100 µM | > 100 µM | > 100 µM | > 100 µM | > 100 µM |  |  |  |  |  |  |  |  |
| NC(=O)c1cc(Br)cc(C2CCCCC2)c1O | 25.5 |  | 25.7 | 28.4 µM | 30.5 µM | 25.6 µM | 29.7 µM | 32 µM | 12.9 |  | 12.2 | 14.1 | 12.9 | 15.8 | 16.8 | 15.1 |
| Cc1cc(C)c(C[N+](C)(C)C)c(C)c1C | > 100 | 2.61 µM | 13.5 | 7.59 µM |  | > 27.1 µM | 5.04 µM | 17.4 µM | 0.173 | 0.208 | 0.285 | 0.323 | 0.762 | 0.654 | 0.388 |  |
| Nc1nnc2cc(Cl)ccc2n1 | > 100 |  | 47.6 | > 100 µM | > 100 µM | > 100 µM |  |  | > 100 |  | 3.56 | > 100 | > 100 |  |  | 23.6 |
| N#Cc1cnc2cc(OC[C@@H](O)CO)c(NC(=O)CC3CSSC3)cc2c1Nc1ccc(OCc2cccc(F)c2)c(Cl)c1 | 2.87 | 0.973 µM | 2.06 | 0.896 µM | 1.18 µM | 0.381 µM | 0.286 µM | 0.759 µM | 1.1 | 0.336 | 0.919 | 0.311 | 0.128 | 0.117 | 0.225 | 0.265 |
| Nc1ccc2c(c1)NCCN2 | > 100 | > 100 µM | > 100 | > 100 µM | > 100 µM | > 100 µM | > 100 µM | > 100 µM |  |  |  |  |  |  |  |  |
| OCC1OC(n2ccc3c(NO)ncnc32)C(O)C1O (stereo not drawn) | 3.17 | 0.718 µM | 0.608 | 2.51 µM | 0.994 µM | 1.3 µM | 0.429 µM | 0.94 µM | 0.0391 | 0.188 | 0.154 | 0.219 | 0.124 | 0.155 | 0.13 | 0.241 |
| N#Cc1c(-c2ccccc2)cc(-c2ccc(Nc3nc(Nc4ccc(Cl)cc4)nc(Nc4ccc(Cl)cc4)n3)cc2)nc1N | 3.26 | 3.1 µM | 3.86 | 35 µM | 48.8 µM | > 100 µM | 3.44 µM | 16.5 µM | 1.64 | 1.39 | 1.06 | 19.1 | 4.06 | 1.54 | 3.8 | 16.6 |
| O=c1nc(Nc2cccc(Cl)c2)oc2cc(Cl)oc(=O)c12 | 24.8 | 8.16 µM | 19.5 | 31.4 µM | 39.8 µM | > 100 µM | 4.61 µM | 29.3 µM | 5 | 2.45 | 5.01 | 11 | 10.9 | 2.02 | 9.39 | 16.9 |
| CCOC(=O)c1[nH]c(-c2ccc(Cl)cc2)cc1-c1cccnc1 | > 100 |  | 84.7 | > 100 µM | > 100 µM | > 100 µM |  | > 100 µM | 0.714 |  | 0.572 | 0.868 | 10.2 |  | 0.35 | 1.35 |
| Cc1nc2ccc(Nc3nc(NCCN4CCOCC4)nc(Nc4ccc(F)cc4)n3)cc2n1Cc1ccccc1 | 17.5 | 9.48 µM | 6.48 | 6.23 µM |  |  | 4.61 µM |  | 2.78 | 2.92 | 1.59 | 1.88 |  | 2.16 |  |  |
| COc1cc(/C=C2\CC3C4CC=C5C[C@@H](OC(C)=O)CC[C@]5(C)C4CC[C@]3(C)C2=O)ccc1OCCCn1ccnc1 (stereo partly drawn) | 21 | > 50 µM | > 50 | 16.4 µM | 5.18 µM |  | > 50 µM | > 50 µM | 9.81 | 19 | 25.4 | 8.83 |  | 16.8 | 16 | 0.0741 |
| NC1CCN(c2nc(Nc3cccc(C(F)(F)F)c3)c3c(=O)[nH]ccc3n2)CC1 | 2.21 | 3.57 µM | 3.04 | 3.54 µM | 3.16 µM | 3.84 µM |  | 4.89 µM | 0.944 | 1.76 | 1.44 | 1.76 | 1.53 |  | 1.17 | 1.35 |
| O=S(=O)(NCC1CCC(CNc2ccc(Cl)cc2)CC1)c1ccc(-c2ccccc2)cc1 (stereo not drawn) | > 50 | > 50 µM | > 50 | > 50 µM | > 50 µM | > 50 µM | > 50 µM |  | 18.3 | > 50 | 45.6 | > 50 | > 50 | > 50 |  | 25.7 |
| CN(C)CCCN1c2nc3ccccc3cc2Sc2cc3ccccc3nc21 | 2.94 |  | 1.42 | 2.58 µM | 3.23 µM |  | 2.84 µM | 5.1 µM | 1.55 |  | 0.332 | 1.29 |  | 1.3 | 1.18 | 1.5 |
| COc1cc2c3c(c1)c1cc(OC)c(OC)cc1c[n+]3CC2 | > 100 | 14.8 µM and 37.1 µM |  | 50 µM and > 100 µM | 50 µM and > 100 µM | 50 µM and > 100 µM | 50 µM and 71.3 µM | 50 µM and > 100 µM | > 100 | 1.93 |  | 3.24 | 18.2 | 16.7 | 37.2 | > 100 |
| CCOC(=O)C(CO)c1nc2c([nH]c1=O)c(=O)n(C)c(=O)n2C (stereo not drawn) | > 100 | > 100 µM |  | > 100 µM | > 100 µM |  | > 100 µM | > 100 µM |  |  |  |  |  |  |  |  |
